From the supplement of paper PMC10307832

How the values were obtained:
Assay in all cases: relative viability (nuclei count vs DMSO), 5 days (fraction); higher = more cells survive
PC-14 = system: PC-14
Outline: (§1)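 Nuclei were stained with Hoechst during a one-step fixation (final 0.05% Triton X-100, 1% formaldehyde, 1 ug/ml Hoechst) carried out 5 days after dosing, then counted on 4× images. The cells, lung cancer lines in 1536-well plates, had been dosed by pin tool the day after seeding with one drug alone or a fixed anchor-drug dose plus five library-drug doses (not always all listed) in √10 steps. Relative viability is the nuclei count in treated wells divided by that in vehicle wells, and each value is the median of duplicate plates.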

NCI-H1915 = system: NCI-H1915
Outline: as §1

NCI-H647 = system: NCI-H647
Outline: as §1

NCI-H520 = system: NCI-H520
Outline: as §1

EPLC-272H = system: EPLC-272H
Outline: as §1

COR-L 105 = system: COR-L 105
Outline: as §1

H3255 = system: H3255
Outline: as §1

HCC-78 = system: HCC-78
Outline: as §1

LC-2-ad = system: LC-2-ad
Outline: as §1

201T = system: 201T
Outline: as §1

HCC-827 = system: HCC-827
Outline: as §1

NCI-H23 = system: NCI-H23
Outline: as §1

ChaGo-K-1 = system: ChaGo-K-1
Outline: as §1

NCI-H2405 = system: NCI-H2405
Outline: as §1

RERF-LC-KJ = system: RERF-LC-KJ
Outline: as §1

NCI-H2347 = system: NCI-H2347
Outline: as §1

NCI-H661 = system: NCI-H661
Outline: as §1

NCI-H2126 = system: NCI-H2126
Outline: as §1

LCLC-97TM1 = system: LCLC-97TM1
Outline: as §1

NCI-H650 = system: NCI-H650
Outline: as §1

NCI-H2087 = system: NCI-H2087
Outline: as §1

NCI-H1666 = system: NCI-H1666
Outline: as §1

## O=c1cc(-c2cccc3c2Sc2ccccc2S3)oc(N2CCOCC2)c1 + O=C(CCCCCCC(=O)Nc1ccccc1)NO [Vorinostat] (partner 1 µM)
PC-14; first compound 0.08 µM
  relative viability: 0.734
PC-14; first compound 0.253 µM
  relative viability: 0.879
PC-14; first compound 0.8 µM
  relative viability: 0.685
PC-14; first compound 2.53 µM
  relative viability: 0.628
PC-14; first compound 8 µM
  relative viability: 0.701
NCI-H1915; first compound 0.08 µM
  relative viability: 0.549
NCI-H1915; first compound 0.253 µM
  relative viability: 0.492
NCI-H1915; first compound 0.8 µM
  relative viability: 0.592
NCI-H1915; first compound 2.53 µM
  relative viability: 0.517
NCI-H1915; first compound 8 µM
  relative viability: 0.562
NCI-H647; first compound 0.08 µM
  relative viability: 0.527
NCI-H647; first compound 0.253 µM
  relative viability: 0.691
NCI-H647; first compound 0.8 µM
  relative viability: 0.766
NCI-H647; first compound 2.53 µM
  relative viability: 0.638
NCI-H647; first compound 8 µM
  relative viability: 0.782
NCI-H520; first compound 0.08 µM
  relative viability: 0.704
NCI-H520; first compound 0.253 µM
  relative viability: 0.856
NCI-H520; first compound 0.8 µM
  relative viability: 0.741
NCI-H520; first compound 2.53 µM
  relative viability: 0.787
NCI-H520; first compound 8 µM
  relative viability: 0.648
EPLC-272H; first compound 0.08 µM
  relative viability: 0.449
EPLC-272H; first compound 0.253 µM
  relative viability: 0.363
EPLC-272H; first compound 0.8 µM
  relative viability: 0.291
EPLC-272H; first compound 2.53 µM
  relative viability: 0.629
EPLC-272H; first compound 8 µM
  relative viability: 0.441
COR-L 105; first compound 0.08 µM
  relative viability: 0.782
COR-L 105; first compound 0.253 µM
  relative viability: 0.828
COR-L 105; first compound 0.8 µM
  relative viability: 0.751
COR-L 105; first compound 2.53 µM
  relative viability: 0.795
COR-L 105; first compound 8 µM
  relative viability: 1.1
H3255; first compound 0.08 µM
  relative viability: 0.811
H3255; first compound 0.253 µM
  relative viability: 0.78
H3255; first compound 0.8 µM
  relative viability: 0.805
H3255; first compound 2.53 µM
  relative viability: 0.878
H3255; first compound 8 µM
  relative viability: 0.896
HCC-78; first compound 0.08 µM
  relative viability: 0.478
HCC-78; first compound 0.253 µM
  relative viability: 0.529
HCC-78; first compound 0.8 µM
  relative viability: 0.376
HCC-78; first compound 2.53 µM
  relative viability: 0.39
HCC-78; first compound 8 µM
  relative viability: 0.474
LC-2-ad; first compound 0.08 µM
  relative viability: 0.683
LC-2-ad; first compound 0.253 µM
  relative viability: 0.835
LC-2-ad; first compound 0.8 µM
  relative viability: 0.684
LC-2-ad; first compound 2.53 µM
  relative viability: 0.695
LC-2-ad; first compound 8 µM
  relative viability: 0.69
201T; first compound 0.08 µM
  relative viability: 0.919
201T; first compound 0.253 µM
  relative viability: 1.05
201T; first compound 0.8 µM
  relative viability: 0.976
201T; first compound 2.53 µM
  relative viability: 0.912
201T; first compound 8 µM
  relative viability: 0.884
HCC-827; first compound 0.08 µM
  relative viability: 0.768
HCC-827; first compound 0.253 µM
  relative viability: 0.945
HCC-827; first compound 0.8 µM
  relative viability: 0.77
HCC-827; first compound 2.53 µM
  relative viability: 0.476
HCC-827; first compound 8 µM
  relative viability: 0.923
NCI-H23; first compound 0.08 µM
  relative viability: 0.477
NCI-H23; first compound 0.253 µM
  relative viability: 0.593
NCI-H23; first compound 0.8 µM
  relative viability: 0.669
NCI-H23; first compound 2.53 µM
  relative viability: 0.543
NCI-H23; first compound 8 µM
  relative viability: 0.516
ChaGo-K-1; first compound 0.08 µM
  relative viability: 0.765
ChaGo-K-1; first compound 0.253 µM
  relative viability: 0.859
ChaGo-K-1; first compound 0.8 µM
  relative viability: 0.876
ChaGo-K-1; first compound 2.53 µM
  relative viability: 0.753
ChaGo-K-1; first compound 8 µM
  relative viability: 0.847
NCI-H2405; first compound 0.08 µM
  relative viability: 0.925
NCI-H2405; first compound 0.253 µM
  relative viability: 0.99
NCI-H2405; first compound 0.8 µM
  relative viability: 1.06
NCI-H2405; first compound 2.53 µM
  relative viability: 0.842
NCI-H2405; first compound 8 µM
  relative viability: 0.983
RERF-LC-KJ; first compound 0.08 µM
  relative viability: 0.558
RERF-LC-KJ; first compound 0.253 µM
  relative viability: 0.64
RERF-LC-KJ; first compound 0.8 µM
  relative viability: 0.713
RERF-LC-KJ; first compound 2.53 µM
  relative viability: 0.655
RERF-LC-KJ; first compound 8 µM
  relative viability: 0.666
NCI-H2347; first compound 0.08 µM
  relative viability: 0.606
NCI-H2347; first compound 0.253 µM
  relative viability: 0.609
NCI-H2347; first compound 0.8 µM
  relative viability: 0.548
NCI-H2347; first compound 2.53 µM
  relative viability: 0.499
NCI-H2347; first compound 8 µM
  relative viability: 0.46
NCI-H661; first compound 0.08 µM
  relative viability: 0.801
NCI-H661; first compound 0.253 µM
  relative viability: 0.808
NCI-H661; first compound 0.8 µM
  relative viability: 0.807
NCI-H661; first compound 2.53 µM
  relative viability: 0.734
NCI-H661; first compound 8 µM
  relative viability: 0.789
NCI-H2126; first compound 0.08 µM
  relative viability: 0.722
NCI-H2126; first compound 0.253 µM
  relative viability: 0.781
NCI-H2126; first compound 0.8 µM
  relative viability: 0.792
NCI-H2126; first compound 2.53 µM
  relative viability: 0.823
NCI-H2126; first compound 8 µM
  relative viability: 0.74
LCLC-97TM1; first compound 0.08 µM
  relative viability: 0.638
LCLC-97TM1; first compound 0.253 µM
  relative viability: 0.927
LCLC-97TM1; first compound 0.8 µM
  relative viability: 0.803
LCLC-97TM1; first compound 2.53 µM
  relative viability: 0.602
LCLC-97TM1; first compound 8 µM
  relative viability: 1.06
NCI-H650; first compound 0.08 µM
  relative viability: 0.473
NCI-H650; first compound 0.253 µM
  relative viability: 0.478
NCI-H650; first compound 0.8 µM
  relative viability: 0.393
NCI-H650; first compound 2.53 µM
  relative viability: 0.345
NCI-H650; first compound 8 µM
  relative viability: 0.458
NCI-H2087; first compound 0.08 µM
  relative viability: 0.862
NCI-H2087; first compound 0.253 µM
  relative viability: 0.757
NCI-H2087; first compound 0.8 µM
  relative viability: 1.09
NCI-H2087; first compound 2.53 µM
  relative viability: 0.727
NCI-H2087; first compound 8 µM
  relative viability: 0.917
NCI-H1666; first compound 0.08 µM
  relative viability: 1
NCI-H1666; first compound 0.253 µM
  relative viability: 1.15
NCI-H1666; first compound 0.8 µM
  relative viability: 0.963
NCI-H1666; first compound 2.53 µM
  relative viability: 1.02
NCI-H1666; first compound 8 µM
  relative viability: 1.06
